By IC50 is commonly meant the point on the concentration scale where inhibition reaches its midpoint.

Numbered stars: 1 amine (or outer) side, 2 acyl side, 3 side chain; on linkers, the order of the positions; unused ones are H or OH. Square brackets hold non-standard residues; d marks the D form. Peptide text beside a SMILES is read from it. * marks the point of attachment. X1 = N[C@@H](CC(=O)[*:2])[C@H](Cc1ccccc1)N[*:1]; Isovaleryl = CC(C)CC(=O)* Where only a bound is given, the exact number is not on record here.

Results on five molecules are retold here after US9345742B2, “Aminostatin derivatives for the treatment of arthrosis” (MERCK PATENT GMBH, priority 2011, dated 2016).

One data set has as its system rat knee joint. The experiment in a line: Carrageenan (CAR)-induced knee joint inflammation: swelling and thermal hyperalgesia (Hargreaves test). The class given is in vivo. Conditions: intra-articular administration 30 minutes before CAR. How it is done:
In order to induce an inflammation reaction, a carrageenan solution (CAR, 1%, 50 μl) was injected intra-articularly on one side into a rat knee joint. The uninjected side was used for control purposes. Six animals per group were used. The […] was determined by means of a micrometer screw (medial-lateral on the knee joint), and the thermal hyperalgesia was determined by means of a directed infrared light source by the Hargreaves method (Hargreaves et al., 1988) on the sole of the foot. Since the site of inflammation (knee joint) is different from the site of measurement (paw sole), use is made here of the term secondary thermal hyperalgesia, the mechanism of which is of importance for the discovery of effective analgesics.
Experimental description of thermal hyperalgesia (Hargreaves test): the experimental animal is placed in a plastic chamber on a quartz sheet. Before testing, the experimental animal is firstly given about 5-15 minutes time to familiarise itself with the environment. As soon as the experimental animal no longer moves so frequently after the familiarisation phase (end of the exploration phase), the infrared light source, whose focus is in the plane of the glass bottom, is positioned directly beneath the rear paw to be stimulated. An experiment run is then started by pressing the button: infrared light results in an increase in the skin temperature of the rear paw. The experiment is terminated either by the experimental animal raising the rear paw (as an expression of the pain threshold being reached) or by automatic switching-off of the infrared light source when a prespecified maximum temperature has been reached. Light reflected by the paw is recorded as long as the experimental animal sits still. Withdrawal of the paw interrupts this reflection, after which the infrared light source is switched off and the time from switching on to switching off is recorded. The instrument is calibrated in such a way that the infrared light source increases the skin temperature to about 45 degrees Celsius in 10 s (Hargreaves et al. 1988). […]

The target of data set [1] is cathepsin D isolated from the human liver (Homo sapiens (Human), UniProt P07339). The experiment in a line: In-vitro fluorescence assay for identification of cathepsin D inhibitors. It is filed as biochemical. Conditions: cathepsin D 1.4 nM, pH 5.5; read-out: CatD assay IC50-. Summed up:
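Human liver cathepsin D (1.4 nM final) preincubated 10 min at room temperature with serially diluted compounds in 100 mM sodium acetate pH 5.5, 1.25% DMSO, 0.25% CHAPS. Reaction started with 5 μM MCA/Dnp-quenched peptide substrate. Fluorescence increase (ex 340/em 450 nm) over 60 min at room temperature compared with compound-free wells.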

The target of the next data set is recombinant human renin (Homo sapiens (Human), UniProt P00797). The experiment in a line: In-vitro fluorescence assay for identification of renin-inhibitory activity. It is filed as biochemical. Conditions: recombinant human renin 10 nM, pH 7.2; read-out: Renin selectivity IC50. In outline: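 Recombinant human renin (10 nM) pre-incubated 15 min at RT with serially diluted compound in 50 mM Mops pH 7.2, 1.5% DMSO, 0.1% Igepal, 0.5% BSA; Edans/Dabcyl FRET peptide (5 µM final) added, 60 min at 37 °C; cleavage read as fluorescence increase (ex 340/em 495 nm) against no-compound wells.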
Chain of recombinant human renin (P00797 67-406): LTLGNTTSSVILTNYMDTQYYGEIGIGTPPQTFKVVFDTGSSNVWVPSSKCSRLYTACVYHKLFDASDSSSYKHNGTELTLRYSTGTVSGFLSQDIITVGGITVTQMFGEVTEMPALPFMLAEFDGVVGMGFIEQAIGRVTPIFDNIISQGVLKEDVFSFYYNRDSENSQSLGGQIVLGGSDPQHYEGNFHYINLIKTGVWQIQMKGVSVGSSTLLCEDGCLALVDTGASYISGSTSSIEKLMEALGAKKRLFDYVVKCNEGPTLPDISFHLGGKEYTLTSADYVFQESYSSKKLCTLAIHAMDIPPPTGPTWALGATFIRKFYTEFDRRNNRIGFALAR

The nature of data set [2]: Stability in bovine synovial fluid. It is filed as in vitro ADME. Conditions: 1 μM, 48 h at 37° C. How it is done: In order to check the stability of individual compounds, a pool of four different bovine synovial fluids is mixed. To this end, about 1 ml per SF is used. The mixture is prepared directly in a 5 ml glass vessel. The SFs are mixed thoroughly, but carefully. No air bubbles or foam should form. To this end, a vortex unit is used at the lowest speed. The compounds to be tested are tested in an initial concentration (unless required otherwise) of 1 μM. After addition of the substance, the batch is again mixed thoroughly and carefully. For visual monitoring, all SF batches are photographed, and the pictures are filed in the eLabBio file for the corresponding experiment. […] The batches are incubated in the incubator for 48 h at 37° C. and 7.5% CO2.
The sampling is carried out after the pre-agreed times (unless required otherwise, see below). 200 μl of the SF are removed from the mixture per time and transferred directly into a 0.5 ml “low-binding” Eppendorf vessel. “Low-binding” Eppendorf vessels are used in order to minimise interaction of the substances with the plastic of the vessels. 200 μl of acetonitrile have already been introduced into the Eppendorf vessel, so that a 1+1 mixture of the SF forms thereafter. This simplifies the subsequent analysis, but precipitation of protein may occur immediately after addition of the SF. This should be noted on the protocol. The 0 h sample is taken immediately after addition of the substance. This corresponds to the 100% value in the stability calculation. Ideally, the concentration employed should be retrieved here. The samples can be frozen at −20° C. • 0 h • 6 h • 24 h • 48 h
The negative control used is SF without substance. The positive control used is SF with 1 μM of substance. This corresponds to the 0 h value and thus 100% stability.
The concentrations measured (ng/ml) are plotted against the time in a graph (GraphPad Prism®). The percentage stability of the substance is determined here. The 100% value used is the initial value in the SF at time 0 h. The data are stored in eLabBio under the respective experiment number and reported in the MSR database (as percent stability after the corresponding incubation times).

The next data set deals with bovine explants. The experiment in a line: Cartilage explant assay (pH-induced cartilage degradation, GAG liberation). Conditions: Bos taurus, 72 h, pH 5.5, 3 days. The class given is cell-based. The text has this:
In order to investigate the effect of potential cathepsin D inhibitors on cartilage degradation, a pH-induced model based on bovine explants is used. The pH of the medium in which the explants are cultivated is matched here to the pathophysiological pH of an arthrotic knee. This pH is pH 5.5. In this ex vivo model, potential cathepsin D inhibitors are subsequently investigated for their action with respect to stopping of the cartilage degradation process. If the cartilage is destroyed, glycosaminoglycans (GAGs) are released into the cell culture supernatant. The amount of GAGs liberated can be determined quantitatively with the aid of DMMB (dimethylmethylene blue hydrochloride). If sulfated GAGs are detected using dimethylmethylene blue hydrochloride, the decrease in the absorption at 633 nm is utilised. […] In order to determine the concentration, a calibration line is also recorded using chondroitin sulfate.
The bovine explants are firstly prepared. The induction of the cartilage degradation is carried out in 96-multiwell plates. One explant is cultivated per well. In each case, 200 μl of DMEM (incubation medium pH 5.5) without FBS+30 μg/ml of ascorbic acid are added. Thus negative control, explants (n=4) are incubated at pH 7.4 (without FBS). This control is not included in the calculation of the data, but instead ensures that the pH change has the desired effect on the liberation of GAG. At this point, the substances to be tested are added. No preincubation of the explants is carried out. The explants are cultivated with the corresponding substances for 3 days in the incubator at 37° C. and 7.5% CO2.
In order to investigate the effect of cathepsin D inhibitors on the liberation of GAG (glycosaminoglycan), the substances are employed in the desired concentration and cultivated for 3 days. The compounds to be tested are tested in a first experiment in a concentration of 1 μM and 1% of DMSO. Substances which have an effect of >50% on the liberation of GAG (this corresponds to <50% of the control in the Assay Explorer) are tested in the next experiment at 100 nM and 1% of DMSO. Substances which have an effect of >50% on the liberation of GAG under these conditions (this corresponds to <50% of the control in the Assay Explorer) are tested in a concentration/effect relationship. The compounds here are investigated in the following concentrations: 30 μM, 10 μM, 3 μM, 1 μM, […], 0.1 μM, 0.03 μM, 0.01 μM.
The positive control used is pepstatin A with a concentration of 0.01 μM. The assay window is defined by the control (pH 5.5), defined as 0% effect, and the control pH 5.5+0.01 μM pepstatin A, defined as 100% effect. After incubation for 3 days, the cell culture supernatants are collected and stored at −20° C. or measured directly. The amount of liberated GAG is measured photometrically.
The effect (1 value) of the respective substance in % based on the positive control (pH 5.5+0.01 μM pepstatin A) and the negative control (pH 5.5) is reported for concentrations of 1 μM and 100 nM. The value represents the average of 4 replicants. In the determination of a concentration/effect relationship, an IC50 value is reported to the database (Assay Explorer).
The cell culture supernatants (200 μl) are either measured directly or stored at −20° C. In order to ensure an accurate determination of the concentration (μg/ml of GAG in the supernatant) of GAG, the measurement values must be located in the linear region of the standard curve. In order to ensure this, various dilutions are routinely introduced (1/5, 1/10, 1/20, 1/40). The dilutions are prepared with medium and introduced automatically (Hamilton) into a 384-well plate (15 μl). 60 μl of DMMB solution are likewise added automatically (or using a multichannel pipette). A rapid colour reaction occurs, which is subsequently measured at 633 nm using a plate reader (for example Envision).

Chain of cathepsin D isolated from the human liver (P07339 65-161): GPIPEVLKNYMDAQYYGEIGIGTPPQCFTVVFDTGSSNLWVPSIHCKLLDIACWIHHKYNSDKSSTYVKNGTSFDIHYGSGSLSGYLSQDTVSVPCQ
Chain of cathepsin D isolated from the human liver (P07339 169-412): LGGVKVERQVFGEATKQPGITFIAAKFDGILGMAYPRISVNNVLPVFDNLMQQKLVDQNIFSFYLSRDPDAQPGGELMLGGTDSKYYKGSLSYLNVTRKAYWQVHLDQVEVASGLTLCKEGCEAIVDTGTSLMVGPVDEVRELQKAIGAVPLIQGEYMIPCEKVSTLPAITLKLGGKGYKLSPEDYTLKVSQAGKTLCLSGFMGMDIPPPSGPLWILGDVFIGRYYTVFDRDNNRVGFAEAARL

With `CC[C@H](C)[C@H](NC(=O)C[C@H](N)[C@H](Cc1ccccc1)NC(=O)[C@@H](NC(=O)[C@H](CC(C)C)NC(=O)CC(C)C)C(C)C)C(=O)N[C@H](C(=O)O)C(C)C` [Compound 23, (S)-2-[(2S,3S)-2-((3S,4S)-3-Amino-4-{(S)-3-methyl-2-[(S)-4-methyl-2-(3-methylbutyrylamino)pentanoylamino]-butyrylamino}-5-phenylpentanoylamino)-3-methyl-pentanoylamino]-3-methylbutyric acid] (Isovaleryl-LV[X1]IV-OH), the “CAR-induced swelling of joint” value in the data set with rat knee joint was “no influence on inflammatory swelling”. Moreover, the thermal hyperalgesia result with rat knee joint (Hargreaves test) is recorded as “exerts an anti-hyperalgesic action”. Besides, in data set [1], the concentration for half-maximal inhibition (IC50) is 50 nM.
Take `CC[C@H](C)[C@H](NC(=O)C[C@H](N)[C@H](Cc1ccccc1)NC(=O)[C@@H](NC(=O)[C@H](CC(C)C)NC(=O)CC(C)C)C(C)C)C(=O)NCCc1ccccc1` [Compound 24, N-((1S,2S)-2-Methyl-1-phenethyl-carbamoylbutyl)-(S)-3-amino-4-{(S)-(S)-3-methyl-2-[(S)-4-methyl-2-(3-methylbutyryl-amino)pentanoylamino]butyrylamino}-5-phenylpentanamide]: at recombinant human renin, the IC50 was more than 30000 nM. Also, the “Stability in synovial fluid” value in data set [2] is reported as “stable”.
Turning to `CC[C@H](C)[C@H](NC(=O)C[C@H](N)[C@H](Cc1ccccc1)NC(=O)[C@@H](NC(=O)[C@H](CC(C)C)NC(=O)CC(C)C)C(C)C)C(=O)Nc1ccn(C)n1` [Compound 27, N-[(1S,2S)-2-Methyl-1-(1-methyl-1H-pyrazol-3-ylcarbamoyl)butyl]-(S)-3-amino-4-{(S)-(S)-3-methyl-2-[(S)-4-methyl-2-(3-methylbutyrylamino)pentanoylamino]-butyrylamino}-5-phenylpentanamide], the “Stability in synovial fluid” value in data set [2] is “stable”. Moreover, the IC50 in data set [1] was 46 nM.
Take `CC[C@H](C)[C@H](NC(=O)C[C@H](N)[C@H](Cc1ccccc1)NC(=O)[C@@H](NC(=O)[C@H](Cc1ccccc1)NC(=O)CC(C)C)C(C)C)C(=O)N[C@H](C(=O)O)C(C)C` [Compound 33, (S)-2-[(2S,3S)-2-((3S,4S)-3-Amino-4-{(S)-3-methyl-2-[(S)-2-(3-methylbutyrylamino)-3-phenylpropionylamino]-1-oxobutyl-amino}-5-phenylpentanoylamino)-3-methylpentanoylamino]-3-methyl-butyric acid] (Isovaleryl-FV[X1]IV-OH): in the data set with bovine explants, the IC50 is 2.64 nM. Also, in data set [2], the “Stability in synovial fluid” value is reported as “stable”.
For `C[C@]12C=CC(=O)C=C1CC[C@H]1[C@@H]3C[C@@H](O)[C@](O)(C(=O)CO)[C@@]3(C)C[C@H](O)[C@@]12F` [TAC, Triamcinolone, reference compound], in the data set on rat knee joint, the “CAR-induced swelling of joint” value is listed as “capable of reducing the CAR-induced swelling”.
